The subject of test [1] is MCF-7 cell. Briefly: Cell proliferation inhibitory activity (Cell-Titer-Glo), MCF-7. In kind it is cell-based. The following applies: Homo sapiens, MCF7, 72 h; 3 days incubation. An excerpt: Experimental Embodiment 2: Evaluation of Cell Proliferation Inhibitory Activity
Experiment objective: To detect cell proliferation inhibitory activity of the tested compounds.
Experimental principle: The luciferase in the Cell-Titer-Glo reagent produces oxyluciferin using luciferin, oxygen and ATP as reaction substrates, and releases energy in the form of light. Since the reaction of luciferase requires ATP, the total amount of light generated by the reaction is proportional to the total amount of ATP that reflects cell viability.
Cell lines: MCF-7 cell line […], HT-29 cell line (ATCC-HTB-38), OE21 (ECACC-96062201), NCI-N87 cell line (ATCC-CRL-5822)
Cell culture medium: (RPMI 1640 culture medium (Invitrogen #1868546; 10% serum Invitrogen #1804958; L-glutamine 1×, Invitrogen #1830863; dual antibiotic Hyclone #J170012))
Cell Titer-Glo® Luminescent Cell Viability Assay Kit (Promega #G7573)
The cells were inoculated in a 384- or 96-well plate with a density of 1000 cells per well and 25 μL per well according to the instructions of the cell inoculating plate. The edge wells were not inoculated with cells, and was supplemented with […].
(i) The mother solution of the compound was 10 mM, and diluted with DMSO to an initial concentration of 4 mM. The compound was added to the compound mother solution, 9 μL per well.
(ii) The compound was diluted with ECHO liquid-handling workstation. Each well of the cell plate was added with 125 nL compound. Each well of the cell wells in 2nd column and 23rd column was added with 125 nL DMSO, and each of the PBS wells in 1st column and 24th column was added with 125 nL DMSO.
(iii) Each well of the cell plate was supplemented with 25 μL culture medium, the final volume in each well of the cell plate was 50 μL, […] 3 times dilution, 10 concentrations, each concentration was duplicated in left and right wells, the final DMSO concentration was 0.25%.
2.3. After addition of the compound, centrifugation was performed at 1000 rpm for 1 min, and the cell plate was placed in a 37° C., 5% CO2 incubator for 3 days.
The cell plate was taken out from the incubator and equilibrated at room temperature for 30 minutes. 25 μL Cell-Titer-Glo reagent was added to each well, shaken for one minute to mix thoroughly, centrifuged at 1000 rpm for 1 minute. After 10 minutes, the plate was read on PerkinElmer Envision with a […] reading time was set at 0.2 second.

Test [2] addresses T1, mTOR kinase (mTORC1 and mTORC2 kinase complex) (Homo sapiens, UniProt P42345).
T1 construct: purchased DiscoverX; host or cells: HEK-293
Briefly: In vitro evaluation of mTOR kinase inhibitory activity (DiscoverX ligand-bead competition binding, qPCR readout). Here is the method: Experimental Embodiment 1: In Vitro Evaluation of mTOR Kinase Inhibitory Activity This experiment was performed by DiscoverX. All materials and methods were obtained from DiscoverX.
Kinase activity analysis.
1. Labeled mTOR kinase was stably expressed in HEK-293 cells.
2. Streptavidin magnetic beads were treated with biotinylated small molecule ligands at room temperature for 30 minutes to produce affinity resin for kinase analysis;
3. Ligand beads were blocked with excess biotin and washed with buffer (1% bovine serum albumin, […]) to remove unbound ligand and non-specifically bound ligand;
4. The assembly of kinase and ligand and affinity beads, and the binding reaction between the compound and the three were performed in buffer (20% blocking buffer, 0.17x phosphate buffer, 0.05% Tween […]);
5. The test compounds were dissolved in dimethyl sulfoxide;
6. All test compounds were dissolved in DMSO, and then directly diluted […]
7. The solution was placed in a 384-well polypropylene plate, wherein the volume of each well was 0.02 mL;
8. The plate was shaked for an hour at room temperature;
9. The plate was washed with buffer (1× PBS, 0.05% Tween 20);
10. The affinity beads were resuspended in buffer (1× PBS, 0.05% Tween […] non-biotin affinity ligand) and incubated at room temperature for 30 minutes;
11. The kinase concentration in the eluate was deteced by qPCR.

Test [3] concerns human breast cancer MCF-7 cell subcutaneous xenograft tumor. Briefly: In vivo pharmacodynamic study, MCF-7 subcutaneous xenograft tumor. To be noted: 15 mg/kg. Further details: species or system BALB/c nude mouse. An excerpt: Experimental Embodiment 4: In Vivo Pharmacodynamic Study on BALB/c Nude Mouse Model of Human Breast Cancer MCF-7 Cell Subcutaneous Xenograft Tumor
Experimental objective: To study the efficacy of the test compounds on human breast cancer MCF-7 cell subcutaneous xenograft tumor in BALB/c nude mouse model.
Experimental animals: Female BALB/c nude mice, 6-8 weeks old, weighing 18-22 grams; supplier: Shanghai Xipuer-Bikai Experimental Animal Co., Ltd.
Human breast cancer MCF-7 cells (ECACC, article number: 86012803) were subjected to in vitro monolayer culture under the conditions of EMEM (EBSS)+2 mM […]+1% Non Essential Amino Acids (NEAA) medium containing 10% fetal bovine serum, 100 U/mL penicillin and 100 μg/mL streptomycin, and 37° C., 5% CO2incubator. Conventional digestion treatment was carried out with trypsin-EDTA twice a week for cell passage. When the cell saturation was 80%-90%, and the quantity reached the requirement, the cells were collected, counted and inoculated.
Estrogen tablets (0.18 mg) were inoculated into the left back of each mouse three days before cell inoculation, 0.2 mL (1×10^7) MCF-7 cells (added with matrigel, volume ratio of 1:1) were subcutaneously inoculated into the right back of each mouse. When the average volume of tumor reached 142 mm^3, the mice were divided into groups and began to be administrated.
The test compounds were prepared into clear solutions of 0.75 mg/mL, 1.5 mg/mL and 3 mg/mL. The vehicles were 5% DMSO+30% polyethylene glycol 300+65% water.
The experimental indexes were used for investigating whether the growth of the tumors had been inhibited, delayed or cured. The diameters of the tumors were measured with vernier calipers twice a week. The calculation formula of the tumor volume was: V=0.5a×b^2, wherein a and b represent the long and short diameters of the tumor respectively.
The antitumor efficacy of the compound was evaluated by TGI (%) or relative tumor proliferation rate T/C (%). TGI (%) reflects the inhibition rate of the tumor growth. Calculation of TGI (%): TGI (%)=[1−(average tumor volume at the end of administration in the treatment group−average tumor volume at the beginning of administration in the treatment group)/(average tumor volume at the end of treatment in the vehicle control group−average tumor volume at the beginning of treatment in the vehicle control group)]×[…].
Relative tumor proliferation rate T/C (%): The calculation formula was as follows: T/C %=TRTV/CRTV at the beginning of the treatment (TRTV: treatment group RTV; CRTV: negative control group RTV). The relative tumor volume (RTV) was calculated according to the results of tumor measurement. The calculation formula was RTV=Vt/V0, wherein V0 is the average tumor volume measured during administration of the groups (i.e. d0), and Vt is the average tumor volume during a certain measurement, the TRTV and CRTV were taken on the same day.
Statistical analysis included the mean and standard error (SEM) of tumor volume at each time point in each group. […] The comparison between two groups was analyzed by T-test, and the comparison between three or more groups was analyzed by one-way ANOVA.

In test [1], `CNC(=O)c1cccc(-c2ccc3c(N4CCOCC4C)nc(N4CC5(CCOC5)OCC4C)nc3n2)c1` (single isomer, unassigned) [Embodiment 48-2] had an IC50 of 176 nM. Further, the equilibrium dissociation constant (Kd) in test [2] is 0.7 nM.

`CC1COCCN1c1nc(N2CCOC3(CCOC3)C2)nc2nc(-c3cccc(C(N)=O)c3)ccc12` (single isomer, unassigned) [Embodiment 50-2] came in with an IC50 in test [1] of 636 nM. In test [2], this compound returned a Kd of 0.7 nM.

In test [1], `CNC(=O)c1cccc(-c2ccc3c(N4C5CCC4COC5)nc(N4CCOC5(CC5)C4)nc3n2)c1` [Embodiment 9] showed an IC50 of 262 nM. Further, binding in test [2] was characterised by a dissociation constant (Kd) of 0.34 nM. As for `CNC(=O)c1cccc(-c2ccc3c(N4CCOCC4C)nc(N4CCC5(CC4)OCCO5)nc3n2)c1` (stereo not shown) [Embodiment 12], in test [1], half-maximal inhibition (IC50) was put at 251 nM. Moreover, the Kd in test [2] was 0.75 nM. `CNC(=O)c1cccc(-c2ccc3c(N4CCOC[C@@H]4C)nc(N4CCOC5(CCOCC5)C4)nc3n2)c1` [Embodiment 13] had an IC50 in test [1] of 255 nM. Besides, the Kd in test [2] came to 0.64 nM. As for `CNC(=O)c1cccc(-c2ccc3c(N4CCOC[C@@H]4C)nc(N4CCOC5(CNC5)C4)nc3n2)c1` [Embodiment 15], in test [2], binding was characterised by a dissociation constant (Kd) of 3.3 nM. In turn, `C[C@H]1COCCN1c1nc(N2CCOC3(CC3)C2)nc2nc(-c3ccc4nc(N)ncc4c3)ccc12` [Embodiment 16] displayed a Kd in test [2] of 1.5 nM. `C[C@H]1COCCN1c1nc(N2CCOC3(CC3)C2)nc2nc(-c3cccc(-c4ccn[nH]4)c3)ccc12` [Embodiment 17] displayed a dissociation constant Kd in test [2] of 3.4 nM. Turning to `C[C@H]1COCCN1c1nc(N2CCOC3(CC3)C2)nc2nc(-c3cccc(-c4nc[nH]n4)c3)ccc12` [Embodiment 19], in test [2], the Kd worked out at 3 nM. Take `CNC(=O)c1cccc(-c2ccc3c(N4CCOC[C@@H]4C)nc(N4CCOCC45CC5)nc3n2)c1` [Embodiment 20]: the Kd in test [2] was found to be 0.97 nM.

Regarding `C[C@H]1COCCN1c1nc(N2CCOC3(CC3)C2)nc2nc(-c3cccc(C(=O)NC4CC4)c3)ccc12` [Embodiment 21], the half-maximal inhibitory concentration (IC50) in test [1] was found to be 190 nM. In addition, the dissociation constant Kd in test [2] was determined as 0.47 nM. In the case of `C[C@H]1COCCN1c1nc(N2CCOC3(CC3)C2)nc2nc(-c3cccc(C(=O)NC(C)(C)C)c3)ccc12` [Embodiment 22], the affinity in test [2], expressed as Kd, was 1.5 nM. The compound `CNC(=O)c1cccc(-c2ccc3c(N4CCOC[C@@H]4C)nc(N4CCOC5(CCCC5)C4)nc3n2)c1` [Embodiment 24] showed an IC50 in test [1] of 206 nM. Also, in test [2], the Kd amounted to 0.41 nM. As to `C[C@H]1COCCN1c1nc(N2CCOC3(CC3)C2)nc2nc(-c3ccc4cnc(N)nc4c3)ccc12` [Embodiment 25], in test [2], binding was characterised by a dissociation constant (Kd) of 1.4 nM. Regarding `CNC(=O)c1cccc(-c2ccc3c(N4CC5CCC(C4)O5)nc(N4CCOC5(CC5)C4)nc3n2)c1` [Embodiment 26], in test [1], the IC50 amounted to 431 nM. The compound further registered a Kd in test [2] of 1 nM.

Take `CNC(=O)c1cccc(-c2ccc3c(N4CCOC[C@@H]4C)nc(N4CCOC5(CN(C)C5)C4)nc3n2)c1` [Embodiment 27]: in test [2], the affinity, expressed as Kd, was 6.6 nM. Turning to `CNC(=O)c1cccc(-c2ccc3c(N4CCOC[C@@H]4C)nc(N4CCOC5(C4)CC(F)(F)C5)nc3n2)c1` [Embodiment 28], the Kd in test [2] is 1.4 nM. The same measure, in the same setting: next, `C[C@H]1COCCN1c1nc(N2CCOC3(C2)CC(F)(F)C3)nc2nc(-c3cccc(C(=O)NC4CC4)c3)ccc12` [Embodiment 29]: 2.7 nM; `CNC(=O)c1cccc(-c2ccc3c(N4CCOC[C@@H]4C)nc(N4CCCC5(C4)OCCO5)nc3n2)c1` [Embodiment 31]: 5 nM. In test [1], `C[C@H]1COCCN1c1nc(N2CCOCC3(CCC3)C2)nc2nc(-c3cccc(C(N)=O)c3)ccc12` [Embodiment 36] displayed an IC50 of 360 nM. In test [1], `CNC(=O)c1cccc(-c2ccc3c(N4CCOC[C@@H]4C)nc(N4CCOCC5(CCC5)C4)nc3n2)c1` [Embodiment 37] came in with an IC50 of 252 nM.

`C[C@H]1COCCN1c1nc(N2CCOCC3(CC3)C2)nc2nc(-c3cccc(C(N)=O)c3)ccc12` [Embodiment 38] registered a half-maximal inhibitory concentration (IC50) in test [1] of 449 nM.

Regarding `CNC(=O)c1cccc(-c2ccc3c(N4CCOC[C@@H]4C)nc(N4CCOCC5(CC5)C4)nc3n2)c1` [Embodiment 39], in test [1], the IC50 came to 268 nM. `CNC(=O)c1cccc(-c2ccc3c(N4CCOC[C@@H]4C)nc(N4CCOC5(COC5)C4)nc3n2)c1` [Embodiment 40] displayed a Kd in test [2] of 0.78 nM. In the case of `CNC(=O)c1cccc(-c2ccc3c(N4CCOC[C@@H]4C)nc(N4CCOC5(CSC5)C4)nc3n2)c1` [Embodiment 41], the affinity in test [2], expressed as Kd, was 0.94 nM. For the compound `CNC(=O)c1cccc(-c2ccc3c(N4CCOC[C@@H]4C)nc(N4CCOC5(C4)C[S+]([O-])C5)nc3n2)c1` (stereo partly shown) [Embodiment 42], in test [2], the equilibrium dissociation constant (Kd) is 0.93 nM.

In test [2], `CNC(=O)c1cccc(-c2ccc3c(N4CCOC[C@@H]4C)nc(N4CCOC5(C4)CS(=O)(=O)C5)nc3n2)c1` [Embodiment 43] showed a Kd of 12 nM. The compound `CC1COCCN1c1nc(N2CCOC3(CCCC3)C2)nc2nc(-c3cccc(C(N)=O)c3)ccc12` (stereo not shown) [Embodiment 49] yielded a Kd in test [2] of 0.3 nM. Moreover, in test [3], the T/C stood at 121.62% and the TGI is recorded as −37.89%. Besides, the “RTV (27th day)” value in test [3] (27th day) was 5.07 ± 0.92. Besides, the “Tumor volume (27th day)” value in test [3] (27th day, mean ± SEM) amounted to 759 ± 174 mm^3. In addition, the “Tumor volume (day 0)” value in test [3] (day 0, mean ± SEM) was 144 ± 14 mm^3.

On to `C[C@H]1COCCN1c1nc(N2CCOC3(COC3)C2)nc2nc(-c3cccc(C(N)=O)c3)ccc12` [Embodiment 52], for which half-maximal inhibition in test [1] (IC50) required 586 nM. In test [2], this compound returned a Kd of 0.8 nM.

Source of the values: patent US11377444B2, “Pyridopyrimidine compounds acting as mTORC 1/2 dual inhibitors” (MEDSHINE DISCOVERY INC., priority 2017, dated 2022).
